Read-outs that look alike come from different tables or passages of the source.
Key:
[1] = target: T1, human RXFP3 (hRXFP3) (Homo sapiens, UniProt Q9NSD7); experiment: competition binding with europium-labelled H3 B1-22R on RXFP3 CHO-K1 cells; type: cell-based; settings: 5 nM Eu-H3 B1-22R, one-site fit Ki, tracer Kd 26 nM; competitive
T1 sequence (Q9NSD7 1-469): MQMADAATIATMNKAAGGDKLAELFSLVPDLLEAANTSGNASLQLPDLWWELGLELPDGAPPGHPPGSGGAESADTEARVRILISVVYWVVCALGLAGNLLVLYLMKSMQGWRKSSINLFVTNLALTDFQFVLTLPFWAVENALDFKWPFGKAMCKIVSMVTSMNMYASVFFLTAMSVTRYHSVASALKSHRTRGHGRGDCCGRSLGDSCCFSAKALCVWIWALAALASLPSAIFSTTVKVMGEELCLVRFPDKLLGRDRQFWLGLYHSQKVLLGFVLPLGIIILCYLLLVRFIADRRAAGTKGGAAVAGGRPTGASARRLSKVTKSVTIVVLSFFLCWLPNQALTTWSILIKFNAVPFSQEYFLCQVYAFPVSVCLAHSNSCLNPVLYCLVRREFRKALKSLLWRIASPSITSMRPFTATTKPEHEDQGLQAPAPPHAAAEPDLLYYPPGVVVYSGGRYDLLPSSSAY

[2] = target: T1, human RXFP3 (hRXFP3); experiment: cAMP accumulation TR-FRET in hRXFP3-CHO cells; type: cell-based
[3] = target: human RXFP4 (hRXFP4) (Homo sapiens, UniProt Q8TDU9); experiment: cAMP accumulation TR-FRET in hRXFP4-CHO cells; type: cell-based
[4] = target: T1, human RXFP3 (hRXFP3); experiment: cell-based; set-up: species or system CHO-K1; Europium-labelled H3 B1-22R competition binding on CHO-K1 cells stably expressing RXFP3; settings: vs 5 nM Eu-H3 B1-22R
Description: CHO-K1 cells stably transfected with RXFP3 were plated onto pre-coated poly-L-lysine 96-well plates for the binding assay performed using 5 nM europium (Eu)-H3 B1-22R as previously described with triplicate determinations within assay and a minimum of three independent experiments. Data are presented as means ± SEM. pKi values were calculated using one-site fit Ki and a Kd value of 26 nM for H3 B1-22R [47].

[5] = target: T1, human RXFP3 (hRXFP3); experiment: cell-based; set-up: TR-FRET inhibition of forskolin-stimulated cAMP accumulation, single-dose primary screen, percent of R3/I5 control; settings: CHO; primary screen, relative to 5 nM R3/I5; read-out: % activation
Description: The HTS campaign was carried out in white 384-well plates by measuring the inhibition of forskolin-stimulated cAMP accumulation in hRXFP3-CHO cells. Briefly, the positive control (5 nM R3/I5) and negative control (1% DMSO) were located at the 64 wells of the outer four columns on both sides with 32 replicates, respectively. The individual screening compounds were loaded at the center twenty columns with an average final concentration of 10 μM in a single-dose format without replicates. Time-resolved fluorescence resonance energy transfer (TR-FRET) signals were read by an EnVision multilabel plate reader (PerkinElmer). Z’ factor, coefficient of variation (CV) and signal-to-background ratio (S/B) were calculated according to the literature. Positive control was regarded as 100% activation, while negative control represented no activation. Compounds showing greater than 50% activation were considered hits, and secondary screening using the same assay was performed to eliminate false positives. cAMP accumulation assay was performed in hRXFP3-CHO cells at a density of 5 × 10^5 cells/mL. […] Plates were incubated at RT for 60 min and the fluorescence intensity measured at 620 nm and 665 nm by an EnVision multilabel plate reader. […]

[6] = target: T1, human RXFP3 (hRXFP3); experiment: cell-based; set-up: HTS inhibition of forskolin-stimulated cAMP, TR-FRET; % activation relative to R3/I5; settings: hRXFP3-CHO; primary screen, single dose; read-out: % activation
Description: The HTS campaign was carried out in white 384-well plates by measuring the inhibition of forskolin-stimulated cAMP accumulation in hRXFP3-CHO cells. Briefly, the positive control (5 nM R3/I5) and negative control (1% DMSO) were located at the 64 wells of the outer four columns on both sides with 32 replicates, respectively. The individual screening compounds were loaded at the center twenty columns with an average final concentration of 10 μM in a single-dose format without replicates. Time-resolved fluorescence resonance energy transfer (TR-FRET) signals were read by an EnVision multilabel plate reader (PerkinElmer). Z’ factor, coefficient of variation (CV) and signal-to-background ratio (S/B) were calculated according to the literature. Positive control was regarded as 100% activation, while negative control represented no activation. Compounds showing greater than 50% activation were considered hits, and secondary screening using the same assay was performed to eliminate false positives. cAMP accumulation assay was performed in hRXFP3-CHO cells at a density of 5 × 10^5 cells/mL. The cells were treated with different concentrations of compounds plus 25 μM forskolin and 500 μM IBMX for 30 min at room temperature (RT). cAMP-d2 conjugate and cryptate conjugate working solutions were then diluted and added to the plates separately. Plates were incubated at RT for 60 min and the fluorescence intensity measured at 620 nm and 665 nm by an EnVision multilabel plate reader. The parental CHO cells were applied to examine off-target effect, while hRXFP4-CHO cells were utilized for selectivity assessment.

human RXFP4 (hRXFP4), sequence (Q8TDU9 whole entry): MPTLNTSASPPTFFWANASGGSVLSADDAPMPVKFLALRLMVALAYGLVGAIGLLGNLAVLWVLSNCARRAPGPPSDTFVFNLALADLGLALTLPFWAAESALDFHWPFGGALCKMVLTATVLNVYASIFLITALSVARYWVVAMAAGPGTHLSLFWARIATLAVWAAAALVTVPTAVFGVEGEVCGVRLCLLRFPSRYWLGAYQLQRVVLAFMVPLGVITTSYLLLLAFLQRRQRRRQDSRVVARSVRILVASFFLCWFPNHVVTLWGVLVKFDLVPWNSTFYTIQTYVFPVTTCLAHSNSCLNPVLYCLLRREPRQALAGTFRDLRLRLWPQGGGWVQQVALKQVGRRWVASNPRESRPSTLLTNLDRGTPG

Row | activity at 10 µM [6] [%] | Structure (SMILES) | other results
1 | – | CC(C)(CCc1ccc(NS(=O)(=O)c2ccccc2)cc1)NCC(O)COc1ccc(O)c(NS(C)(=O)=O)c1 (racemic) [WNN0109-C011] | pKi [1]: further confirmed the direct binding of WNN0109-C011 and its two enantiomers with RXFP3; EC50 [2]: 2.51 µM; EC50 [3]: 33.9 µM; Ki [4]: 41.7 µM; activity at 10 µM [5]: 85%
2 | – | CC(C)(CCc1ccc(NS(=O)(=O)c2ccccc2)cc1)NC[C@@H](O)COc1ccc(O)c(NS(C)(=O)=O)c1 [R-WNN0109-C011] | pKi [1]: further confirmed the direct binding of WNN0109-C011 and its two enantiomers with RXFP3; Ki [4]: 31.6 µM
3 | – | CC(C)(CCc1ccc(NS(=O)(=O)c2ccccc2)cc1)NC[C@H](O)COc1ccc(O)c(NS(C)(=O)=O)c1 [S-WNN0109-C011] | pKi [1]: further confirmed the direct binding of WNN0109-C011 and its two enantiomers with RXFP3; Ki [4]: 91.2 µM
4 | 73 | O=C(O)Cn1c(=O)c(=O)[nH]c2c(Br)cc(Br)cc21 [WNN0002-F006] | –
5 | 54 | Nc1ccc2sc3[nH]c(=O)c(=O)[nH]c3c2c1 [WNN0003-B006] | –
6 | 51 | O=c1[nH]c2scc(C3CCCCC3)c2[nH]c1=O [WNN0003-F007] | –
7 | 54 | Cc1sc2[nH]c(=O)c(=O)[nH]c2c1C [WNN0003-G011] | –
8 | 57 | Cc1csc2[nH]c(=O)c(=O)n(C)c12 [WNN0004-D007] | –
9 | 53 | O=C1NCCCC1C1=NC(CO)(CO)CO1 (stereo not drawn) [WNN0027-E003] | –
10 | 56 | CS/C(=N/C#N)Nc1ccc2c(c1)OCCO2 [WNN0027-G008] | –
11 | 56 | O=C(CCCCN1CCCCC1)c1ccccc1 [WNN0028-D009] | –
12 | 68 | O=C(O)C1CCCN(CCC=C2c3ccccc3CCc3cc(-c4ccccc4)ccc32)C1 (stereo not drawn) [WNN0063-E008] | –
13 | 130 | O=C(O)C1CCN(CCC=C2c3ccccc3CCc3cc(-c4ccccc4)ccc32)CC1 [WNN0063-E009] | –
14 | 82 | O=c1[nH]c2ccccc2n(C(c2ccccc2)c2ccccc2)c1=O [WNN0119-H005] | –
15 | 65 | O=C(c1ccccc1O)N1CCc2nc3ncccc3cc2C1 [WNN0195-H002] | –
16 | 78 | CSc1nccc(-c2ccc(Br)s2)n1 [WNN0196-B004] | –
17 | 50 | C[N+](C)=c1ccc2nc3ccc(N)cc3sc-2c1 [WNN0314-F004] | –
18 | 51 | CN(C)c1ccc2nc3ccc(=[N+](C)C)cc-3sc2c1 [WNN0314-G003] | –
